Measured values from paper PMC8472287, “Betulinic Acid Decorated with Polar Groups and Blue Emitting BODIPY Dye: Synthesis, Cytotoxicity, Cell-Cycle Analysis and Anti-HIV Profiling” (Biomedicines, 2021).
Where a name gives a salt, the structure may show the parent alone. Read-outs that look alike come from different tables or passages of the source.

What was measured:
[1] = tested on: CCRF-CEM; test: MTS cytotoxicity assay, CCRF-CEM; format: cell-based; conditions: Homo sapiens, 72 h, 3-day incubation
Text: (§1) All cells (if not indicated otherwise) were purchased from the American Tissue Culture Collection (ATCC; Manassas, VA, USA). The highly chemosensitive CCRF-CEM line is derived from T lymphoblastic leukaemia, K562 represent cells of chronic myelogenous leukaemia. Colorectal adenocarcinoma HCT116 cell line and its p53 gene knockout counterpart (HCT116p53−/−, Horizon Discovery Ltd., Cambridge, UK) were used as models to assess the impact of p53 deficiency on cell line sensitivity. A549 cells are derived from lung adenocarcinoma and U2OS from human osteosarcoma. CEM-DNR and K562-Tax are well-characterized daunorubicin and paclitaxel-resistant sublines of CCRF-CEM and K562. The CEM-DNR resistant cells overexpress the P-glycoprotein and LRP protein, the K562-Tax overexpress P-glycoprotein but is losing the expression of LRP, which is present at parental K562 cell line. P-glycoprotein belongs to the ABC transporters’ family and is involved in the primary and acquired multidrug resistance phenomenon by the efflux of toxic compounds, LRP protein is involved in the lysosomal degradation. MRC-5 and BJ cell lines were used as a non-tumour control and represent human fibroblasts. The cells were maintained in Nunc/Corning 80 cm^2 plastic tissue culture flasks and cultured in cell culture medium according to ATCC or Horizon recommendations (DMEM/RPMI 1640 with 5 g/L-glucose, 2 mM glutamine, 100 U/mL penicillin, […] streptomycin, 10% fetal calf serum, and NaHCO3).
(§2) To perform the cytotoxicity MTS assay, cell suspensions were prepared and diluted according to the cell type and the expected target cell density (25,000–35,000 cells/mL) based on cell growth characteristics. Cells were added by an automatic pipettor (30 μL) into 384 well microtiter plates. All tested compounds were dissolved in 100% DMSO and four-fold dilutions of the intended test concentration were added in 0.15 μL aliquots at time zero to the microtiter plate wells by the echo-acoustic liquid handler Echo550 (Labcyte, San Jose, CA, USA). The experiments were performed in technical duplicates and at least three biological replicates. The cells were incubated with the tested compounds for 72 h at 37 °C, in a 5% CO2 atmosphere at 99% humidity. At the end of the incubation period, the cells were assayed by using the MTS test. Aliquots (5 µL) of the MTS stock solution were pipetted into each well and incubated for an additional 1–4 h. After this incubation period, the optical density (OD) was measured at 490 nm with an Envision microplate reader (Perkin Elmer, Waltham, Massachusetts, USA). Tumour cell survival (TCS) was calculated using the following equation: TCS = (ODdrug-exposed well/mean ODcontrol wells) × 100%.

[2] = tested on: CEM-DNR; test: MTS cytotoxicity assay, CEM-DNR; format: cell-based; conditions: Homo sapiens, 72 h, CEM-DNR (daunorubicin resistant), 3-day incubation
Text: as §1, §2

[3] = tested on: K562; test: MTS cytotoxicity assay, K562; format: cell-based; conditions: Homo sapiens, 72 h, 3-day incubation
Text: as §1, §2

[4] = tested on: K562-Tax; test: MTS cytotoxicity assay, K562-Tax; format: cell-based; conditions: Homo sapiens, 72 h, K562-Tax (paclitaxel-resistant), 3-day incubation
Text: as §1, §2

[5] = tested on: A549; test: MTS cytotoxicity assay, A549; format: cell-based; conditions: Homo sapiens, 72 h, 3-day incubation
Text: as §1, §2

[6] = tested on: HCT116; test: MTS cytotoxicity assay, HCT116; format: cell-based; conditions: Homo sapiens, HCT-116, 72 h, 3-day incubation
Text: as §1, §2

[7] = tested on: HCT116p53−/−; test: MTS cytotoxicity assay, HCT116p53−/−; format: cell-based; conditions: Homo sapiens, HCT116-p53-null, 72 h, HCT116p53−/− (null p53 gene), 3-day incubation
Text: as §1, §2

[8] = tested on: U2OS; test: MTS cytotoxicity assay, U2OS; format: cell-based; conditions: Homo sapiens, 72 h, 3-day incubation
Text: as §1, §2

[9] = tested on: MRC-5; test: MTS cytotoxicity assay, MRC-5; format: cell-based; conditions: Homo sapiens, MRC5, 72 h, MRC-5 normal fibroblasts, 3-day incubation
Text: as §1, §2

[10] = tested on: BJ; test: MTS cytotoxicity assay, BJ; format: cell-based; conditions: Homo sapiens, 72 h, BJ normal fibroblasts, 3-day incubation
Text: as §1, §2

[11] = tested on: entire cell line panel
[12] = tested on: VSV-G pseudotyped HIV-1 particles; test: microbe, parasite or virus in culture; format: cell-based; conditions: for IC50: read-out: IC50i (50% infection inhibition)
[13] = in vitro; conditions: human
[14] = tested on: CCRF-CEM lymphoblasts; test: BrU incorporation analysis (RNA synthesis); format: cell-based, human; conditions: 24 h, 5 × IC50 (high concentration)
[15] = tested on: CA-SP1 processing of HIV-1 Gag polyprotein; test: Western blot of released virions with anti-HIV-1 CA antibody; format: cell-based
[16] = Human immunodeficiency virus 1, HEK293, 48 h

Row | SMILES | IC50 [1] | IC50 [2] | IC50 [3] | IC50 [4] | IC50 [5] | IC50 [6] | IC50 [7] | IC50 [8] | IC50 [9] | IC50 [10] | cytotoxic effect in the cell line panel (in words) [11] | anti-HIV-1 activity (in words) [12] | IC50 [12, 16] | IC50 [13] | RNA synthesis by BrU (in words) [14] | IC50 [12] | CA forms identified in released viruses (CA-SP1 processing) [15]
1 | C=C(C)[C@@H]1CC[C@]2(C(=O)O)CC[C@]3(C)[C@H](CC[C@@H]4[C@@]5(C)CC[C@H](OC(=O)CC(C)(C)C(=O)O)C(C)(C)[C@@H]5CC[C@]43C)[C@@H]12 [BT, 3-O-(3,3-dimethylsuccinyl) betulinic acid, reference compound] | 12.8 µM | 22.2 µM | 23.6 µM | 22 µM | 23.1 µM | 14.2 µM | 18.2 µM | 27.6 µM | > 50 µM | > 50 µM | weak or medium cytotoxic effect | – | – | – | – | – | –
2 | C=C(C)[C@@H]1CC[C@]2(C(=O)NCCCN=[N+]=[N-])CC[C@]3(C)[C@H](CC[C@@H]4[C@@]5(C)CC[C@H](OC(=O)CCNC6=C7C=CC=[N+]7[B-](F)(F)n7cccc76)C(C)(C)[C@@H]5CC[C@]43C)[C@@H]12 [Compound 5, (3β)-N-(3-Azidopropyl)-3-[N´-(4,4-difluoro-4-bora-3a,4a-diaza-s-indacene-8-yl)-β-alanyl]-oxy-lup-20(29)-ene-28-amide] | – | – | – | – | – | – | – | – | – | – | did not induce any cytotoxic effect | did not exhibit any potent anti-HIV-1 activity | > 50 µM | > 40 µM | – | – | –
3 | C=C(C)[C@@H]1CC[C@]2(C(=O)N3CCN(CCN)CC3)CC[C@]3(C)[C@H](CC[C@@H]4[C@@]5(C)CC[C@H](OC(=O)CC(C)(C)C(=O)O)C(C)(C)[C@@H]5CC[C@]43C)[C@@H]12 [Compound 17, 4-{[(3β)-28-[4-(2-Aminoethyl)piperazine-1-yl]-28-oxolup-20(29)-ene-3-yl]oxy}-2,2-dimethyl-4-oxobutanoic acid hydrochloride] | 5.76 µM | > 50 µM | > 50 µM | > 50 µM | > 50 µM | > 50 µM | > 50 µM | 44.6 µM | > 50 µM | > 50 µM | inactive | – | < 10 µM | > 40 µM | stalled RNA synthesis | 7.6 µM | not only fully processed p24 CA, but also p25 CA-SP1 protein
4 | C=C(C)[C@@H]1CC[C@]2(C(=O)NCCCN=[N+]=[N-])CC[C@]3(C)[C@H](CC[C@@H]4[C@@]5(C)CC[C@H](O)C(C)(C)[C@@H]5CC[C@]43C)[C@@H]12 [Compound 1, (3β)-N-(3-Azidopropyl)-3-hydroxylup-20(29)-ene-28-amide] | 8.98 µM | 16.8 µM | > 50 µM | 10.6 µM | > 50 µM | > 50 µM | > 50 µM | 29 µM | > 50 µM | > 50 µM | activity only against selected cell lines | did not exhibit any potent anti-HIV-1 activity | > 50 µM | > 40 µM | – | – | –
5 | C=C(C)[C@@H]1CC[C@]2(C(=O)NCCCN)CC[C@]3(C)[C@H](CC[C@@H]4[C@@]5(C)CC[C@H](OC(=O)CC(C)(C)C(=O)O)C(C)(C)[C@@H]5CC[C@]43C)[C@@H]12 [Compound 9, 4-{[(3β)-28-[(3-Aminopropyl)amino]-28-oxolup-20(29)-ene-3-yl]oxy}-2,2-dimethyl-4-oxo-butanooic acid hydrochloride] | 22.5 µM | > 50 µM | > 50 µM | > 50 µM | > 50 µM | > 50 µM | > 50 µM | > 50 µM | > 50 µM | > 50 µM | inactive | – | 14 µM | > 40 µM | – | – | not only fully processed p24 CA, but also p25 CA-SP1 protein
6 | C=C(C)[C@@H]1CC[C@]2(C(=O)N3CCN(CCNC(=O)OC(C)(C)C)CC3)CC[C@]3(C)[C@H](CC[C@@H]4[C@@]5(C)CC[C@H](O)C(C)(C)[C@@H]5CC[C@]43C)[C@@H]12 [Compound 13, Tert-butyl-(2-{4-[(3β)-3-hydroxy-28-oxolup-20(29)-ene-28-yl]piperazine-1-yl}ethyl)-carbamate] | > 50 µM | 4.76 µM | 5.09 µM | 8.77 µM | 5.15 µM | 6.02 µM | 4.99 µM | 4.16 µM | 5.18 µM | 5.36 µM | high cytotoxicity | did not exhibit any potent anti-HIV-1 activity | > 50 µM | > 40 µM | – | – | –
7 | C=C(C)[C@@H]1CC[C@]2(C(=O)N3CCN(CCNC(=O)OC(C)(C)C)CC3)CC[C@]3(C)[C@H](CC[C@@H]4[C@@]5(C)CC[C@H](OC(=O)CC(C)(C)C(=O)O)C(C)(C)[C@@H]5CC[C@]43C)[C@@H]12 [Compound 16, 4-{[(3β)-28-(4-{2-[(Tert-butoxycarbonyl)amino]ethyl}piperazine-1-yl)-28-oxolup-20(29)-ene-3-yl]oxy}-2,2-dimethyl-4-oxobutanoic acid] | > 50 µM | > 50 µM | 47.9 µM | > 50 µM | 44.9 µM | 46.6 µM | 44.8 µM | 44.6 µM | 44.6 µM | 47.6 µM | did not induce any cytotoxic effect | – | < 10 µM | > 40 µM | – | 9.1 µM | not only fully processed p24 CA, but also p25 CA-SP1 protein
8 | C=C(C)[C@@H]1CC[C@]2(C(=O)NCCCNC(=O)OC(C)(C)C)CC[C@]3(C)[C@H](CC[C@@H]4[C@@]5(C)CC[C@H](O)C(C)(C)[C@@H]5CC[C@]43C)[C@@H]12 [Compound 7, Tert-butyl-(3-{[(3β)-3-hydroxy-28-oxolup-20(29)-ene-28-yl]amino}propyl)-carbamate] | > 50 µM | > 50 µM | > 50 µM | > 50 µM | 21.3 µM | > 50 µM | > 50 µM | 18.4 µM | 17.6 µM | 20.7 µM | activity only against selected cell lines | did not exhibit any potent anti-HIV-1 activity | > 50 µM | > 40 µM | – | – | –
9 | C=C(C)[C@@H]1CC[C@]2(C(=O)N3CCN(CCNC4=C5C=CC=[N+]5[B-](F)(F)n5cccc54)CC3)CC[C@]3(C)[C@H](CC[C@@H]4[C@@]5(C)CC[C@H](O)C(C)(C)[C@@H]5CC[C@]43C)[C@@H]12 [Compound 15, (3β)-28-{4-[N-(4,4-Difluoro-4-bora-3a,4a-diaza-s-indacene-8-yl)-2-aminoethyl]piperazine-1-yl}-3-hydroxylup-20(29)-ene-28-one] | – | – | – | – | – | – | – | – | – | – | did not induce any cytotoxic effect | did not exhibit any potent anti-HIV-1 activity | > 50 µM | > 40 µM | – | – | –
